The test system of data set [1] is Staphylococcus aureus (H-Heatley strain, NRRL B-314). Put plainly: Bioassay for antibacterial activity. The format is cell-based. From the text:
The compounds of this invention are useful antibacterial agents. In this aspect, these compounds may be used in the same manner in which the parent antibiotic is used, as described in U.S. Pat. No. 3,923,823. A bioassay for the antibacterial activity of A-23187 has been described by J. E. Westhead in Antimicrobial Agents and Chemotherapy 11 (5), 916-918 (1977). The test organism for this bioassay is Staphylococcus aureus (H-Heatley strain, NRRL B-314).

A short description of data set [2]: Acute toxicity in mice, intraperitoneal. As to conditions: mouse, in vivo, ip. On the procedure:
The compounds of the present invention are, in general, less toxic than the parent antibiotic. Table II summarizes the acute toxicities of representative compounds in mice, expressed as LD50, when the compounds are administered intraperitoneally.

Data set [3] deals with cation transport ATPase in liver mitochondria. Put plainly: In vitro inhibition of cation transport ATPase in liver mitochondria. Type of data set: biochemical. From the text: In yet another aspect, the compounds of this invention are active as inhibitors of the enzyme ATPase. ATPase, an alkali-metal-sensitive enzyme found in cell membranes, is involved in the energy necessary for active transport. "Active transport" refers to the energy-requiring series of operations whereby intracellular and extracellular fluids maintain their compositions. Inhibitors of ATPase reduce the energy required for active transport. Table III summarizes the results of in vitro tests measuring inhibition of cation transport ATPase in liver mitochondria [measured as half effective concentration (Ic50) in mcg/ml].

The conditions of data set [4]: cited from earlier work.
[5] abbreviates: Pfeiffer and Lardy, Biochemistry 15, 935 (1976).

Molecules are shown by their SMILES.

As usually defined, the LD50 is the dose expected to kill half of the subjects tested. A lower LD50 goes with greater toxicity. As for `CNc1ccc2oc(CC3OC4(CCC3C)OC(C(C)C(=O)c3cc(Br)c(Br)[nH]3)C(C)CC4C)nc2c1C(=O)O` (stereo not drawn) [23,24-dibromo-A-23187 (free acid), 5-(methylamino)-2-[[3β,9α,11β-trimethyl-8-[1α-methyl-2-oxo-2-(4,5-dibromo-1H-pyrrol-2-yl)ethyl]-1,7-dioxaspiro[5.5]undec-2β-yl]methyl]-4-benzoxazolecarboxylic acid], in data set [1], the Bioassay was determined as 1105 µg/mL. The LD50 in data set [2] stood at 79.8 mg/kg. Also, in data set [3], the “half effective concentration (Ic50), ATPase induced by CaCl2” value (“half effective concentration … by CaCl2” for short) amounted to 0.8 µg/mL and the “half effective concentration (Ic50), ATPase induced by K^+ monazomycin” value came to 0.1 µg/mL.

In data set [1], `CNc1ccc2oc(CC3OC4(CCC3C)OC(C(C)C(=O)c3cc(Br)c[nH]3)C(C)CC4C)nc2c1C(=O)O` (stereo not drawn) [23-bromo-A-23187 (free acid), 5-(methylamino)-2-[[3β,9α,11β-trimethyl-8-[1α-methyl-2-oxo-2-(4-bromo-1H-pyrrol-2-yl)ethyl]-1,7-dioxaspiro[5.5]undec-2β-yl]methyl]-4-benzoxazolecarboxylic acid] showed a Bioassay of 1766 µg/mL. The molecule further registered an LD50 in data set [2] of 23.7 mg/kg. In data set [3], the “half effective concentration … by CaCl2” value was over 10 µg/mL and the “half effective concentration (Ic50), ATPase induced by K^+ monazomycin” value was determined as 0.1 µg/mL.

As for `CNc1ccc2oc(CC3OC4(CCC3C)OC(C(C)C(=O)c3ccc[nH]3)C(C)CC4C)nc2c1C(=O)O` (centres unmarked) [A-23187 (free acid), reference compound], the Bioassay in data set [1] turned out to be 1060 µg/mL. Further, in data set [4] (setting [5]), the “discrimination for divalent over monovalent cations” value is “not complete” and the “transport of Mg^2+ versus Ca^2+” value is recorded as “transports Mg^2+ with a similar efficiency to Ca^2+”. For the same molecule, the “selectivity for transport of divalent over monovalent cations” value in data set [4] (background, among approximately 100 known ionophores) is listed as “substantially selective for the transport of divalent over monovalent cations”. For the same molecule, in data set [3], the “half effective concentration … by CaCl2” value amounted to 0.5 µg/mL and the “half effective concentration (Ic50), ATPase induced by K^+ monazomycin” value was 0.5 µg/mL.

Source of the values: patent US4227003A, “Bromo-A-23187 derivatives” (Eli Lilly and Company, priority 1978, dated 1980).
